In patent US7491505B2, “Method for analyzing tumor aggressivity comprising measurement of polymerized actin” (Bioalliance Pharma, priority 2002, dated 2009):

Tested on: polymerized actin in lysate of NIH 3T3 EF cells
Test: Measurement of polymerized actin in the steady state (STAFI) and Kobs in cellular lysate by static fluorescence polarization
Assay type: biochemical, murine
Conditions: NIH 3T3 EF lysate
Description: The result of the test is a plateau fluorescence anisotropy value (<<STAFI>>) corresponding to the quantity of polymerized actin in the steady state and an apparent constant (Kobs) for actin polymerization resulting from the progressive incorporation of marked actin monomers over time until attainment of the steady state, that is the plateau of the curve.
By use of the GraphPad Prism® version 3 Software (GraphPad Software, Inc., San Diego, Calif.), for biostatistics, curve fitting, and scientific graphing, the experimental data are used to generate a curve adjusted to a 1st order equation such that: Y=ΔmA max(1−e^−k·t) where
The technique of fluorescence polarization, also called static fluorescence anisotropy enables the obtaining of a value dependent on the size of the fluorescent molecule and the number of fluorescent molecular complexes. […] The level of this plateau, called <<STAFI>> reflects the quantity of F at the steady state, that is, the […], and the speed of reaching the plateau depends on the rapidity with which these filaments are formed. […]
At the time of the test, the solution of marked actin monomers is diluted to 1/3 in G solution. The apparatus used is a Beacon® 2000 Fluorescence Polarization System (Invitrogen Corporation, Carlsbad, Calif.) fluorescence polarization spectrometer. […]

Compound: C/C1=C\[C@H](C)C[C@H](C)OC(=O)C[C@H](c2ccc(O)cc2)NC(=O)[C@@H](Cc2c(Br)[nH]c3ccccc23)N(C)C(=O)[C@H](C)NC(=O)[C@@H](C)C1 [Jasplakinolide]
- delta mA max (STAFI, fluorescence anisotropy value at the plateau) (10 μM jasplakinolide added to polymerization medium, initial value 35 mA, NIH 3T3 65 mA): 66 mA
- Kobs (apparent constant of actin polymerization) (jasplakinolide added, NIH 3T3 EF alone 0.04, NIH 3T3 0.086): 0.15
